What was measured:
[1] = target: MST3 (full-length, NanoLuc fusion) (Homo sapiens, UniProt Q9Y6E0); assay: cell-based
SRPK1 = SRPK1 (Homo sapiens, UniProt Q96SB4); settings: 1 µM; inhibitor
CDK11B = CDK11B (Homo sapiens, UniProt P21127); settings: 1 µM; inhibitor
WEE1 = WEE1 (Homo sapiens, UniProt P30291); settings: 1 µM; inhibitor
SIK2 = SIK2 (Homo sapiens, UniProt Q9H0K1); settings: 1 µM; inhibitor
PKMzeta = PKMzeta (Homo sapiens, UniProt Q05513); settings: 1 µM; inhibitor
NLK = NLK (Homo sapiens, UniProt Q9UBE8); settings: 1 µM; inhibitor
Chain of NLK (Q9UBE8 whole entry): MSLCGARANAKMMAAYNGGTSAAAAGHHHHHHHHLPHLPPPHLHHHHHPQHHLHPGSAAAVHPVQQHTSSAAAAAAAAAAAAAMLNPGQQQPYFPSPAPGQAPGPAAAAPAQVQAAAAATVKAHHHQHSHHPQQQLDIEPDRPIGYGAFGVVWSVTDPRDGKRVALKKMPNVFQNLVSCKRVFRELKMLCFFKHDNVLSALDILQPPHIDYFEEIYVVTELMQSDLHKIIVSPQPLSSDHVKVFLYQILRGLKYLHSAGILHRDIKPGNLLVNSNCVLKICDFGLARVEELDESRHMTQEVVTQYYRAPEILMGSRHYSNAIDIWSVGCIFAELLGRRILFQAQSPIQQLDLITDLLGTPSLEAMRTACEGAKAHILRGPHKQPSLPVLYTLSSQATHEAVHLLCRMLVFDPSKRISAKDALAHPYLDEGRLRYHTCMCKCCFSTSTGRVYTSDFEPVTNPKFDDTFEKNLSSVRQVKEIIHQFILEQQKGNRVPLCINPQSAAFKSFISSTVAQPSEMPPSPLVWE

RPS6KA4 = RPS6KA4 (Homo sapiens, UniProt O75676); settings: 1 µM; inhibitor
MATK = MATK (Homo sapiens, UniProt P42679); settings: 1 µM; inhibitor
Chain of MATK (P42679 whole entry): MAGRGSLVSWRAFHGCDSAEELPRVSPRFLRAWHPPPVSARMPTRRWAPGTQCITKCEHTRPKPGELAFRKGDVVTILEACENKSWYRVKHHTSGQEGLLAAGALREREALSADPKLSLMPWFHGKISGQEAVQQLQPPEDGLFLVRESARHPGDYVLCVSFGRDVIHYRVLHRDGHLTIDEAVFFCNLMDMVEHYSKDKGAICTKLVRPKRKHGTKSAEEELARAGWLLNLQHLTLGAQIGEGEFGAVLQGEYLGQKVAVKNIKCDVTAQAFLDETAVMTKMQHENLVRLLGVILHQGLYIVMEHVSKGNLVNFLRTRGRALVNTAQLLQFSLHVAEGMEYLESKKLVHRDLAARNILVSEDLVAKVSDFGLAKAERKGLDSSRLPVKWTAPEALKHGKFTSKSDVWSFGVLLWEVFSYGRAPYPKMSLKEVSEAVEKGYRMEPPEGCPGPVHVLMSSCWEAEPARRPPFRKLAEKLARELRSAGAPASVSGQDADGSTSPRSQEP

ALK = ALK (Homo sapiens, UniProt Q9UM73); settings: 1 µM; inhibitor
TIE2 = TIE2 (Homo sapiens, UniProt Q02763); settings: 1 µM; inhibitor
Chain of TIE2 (Q02763 whole entry): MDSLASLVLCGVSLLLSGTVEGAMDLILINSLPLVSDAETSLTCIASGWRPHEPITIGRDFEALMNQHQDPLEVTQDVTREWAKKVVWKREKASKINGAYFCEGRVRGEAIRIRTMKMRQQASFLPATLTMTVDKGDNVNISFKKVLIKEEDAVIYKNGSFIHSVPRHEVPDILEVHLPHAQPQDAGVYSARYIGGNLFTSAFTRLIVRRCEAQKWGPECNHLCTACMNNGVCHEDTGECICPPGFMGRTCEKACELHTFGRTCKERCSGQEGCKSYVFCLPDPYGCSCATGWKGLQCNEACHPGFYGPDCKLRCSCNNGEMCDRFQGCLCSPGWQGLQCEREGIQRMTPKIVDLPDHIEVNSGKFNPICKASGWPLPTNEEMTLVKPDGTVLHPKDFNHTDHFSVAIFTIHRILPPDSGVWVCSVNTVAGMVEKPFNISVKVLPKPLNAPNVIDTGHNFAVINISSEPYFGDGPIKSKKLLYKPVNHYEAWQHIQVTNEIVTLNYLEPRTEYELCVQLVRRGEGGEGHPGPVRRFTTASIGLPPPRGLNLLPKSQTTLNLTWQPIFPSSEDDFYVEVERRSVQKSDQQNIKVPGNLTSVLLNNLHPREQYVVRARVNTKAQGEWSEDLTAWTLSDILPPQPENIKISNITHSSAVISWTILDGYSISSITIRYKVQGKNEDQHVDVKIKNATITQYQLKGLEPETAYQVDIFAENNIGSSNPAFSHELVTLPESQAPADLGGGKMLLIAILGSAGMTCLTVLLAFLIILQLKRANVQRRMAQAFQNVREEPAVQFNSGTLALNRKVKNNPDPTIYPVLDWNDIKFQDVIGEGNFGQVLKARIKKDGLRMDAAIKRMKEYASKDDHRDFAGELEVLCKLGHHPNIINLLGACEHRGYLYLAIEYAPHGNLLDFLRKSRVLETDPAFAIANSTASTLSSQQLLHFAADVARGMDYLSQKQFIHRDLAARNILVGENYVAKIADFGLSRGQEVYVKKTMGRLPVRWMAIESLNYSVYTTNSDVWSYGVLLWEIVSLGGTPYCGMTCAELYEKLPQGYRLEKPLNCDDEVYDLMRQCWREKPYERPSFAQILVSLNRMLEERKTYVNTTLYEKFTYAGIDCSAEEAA

EPHA3 = EPHA3 (Homo sapiens, UniProt P29320); settings: 1 µM; inhibitor
ABL2 = ABL2 (Homo sapiens, UniProt P42684); settings: 1 µM; inhibitor
GRK6 = GRK6 (Homo sapiens, UniProt P43250); settings: 1 µM; inhibitor
PBK = PBK (Homo sapiens, UniProt Q96KB5); settings: 1 µM; inhibitor
Chain of PBK (Q96KB5 whole entry): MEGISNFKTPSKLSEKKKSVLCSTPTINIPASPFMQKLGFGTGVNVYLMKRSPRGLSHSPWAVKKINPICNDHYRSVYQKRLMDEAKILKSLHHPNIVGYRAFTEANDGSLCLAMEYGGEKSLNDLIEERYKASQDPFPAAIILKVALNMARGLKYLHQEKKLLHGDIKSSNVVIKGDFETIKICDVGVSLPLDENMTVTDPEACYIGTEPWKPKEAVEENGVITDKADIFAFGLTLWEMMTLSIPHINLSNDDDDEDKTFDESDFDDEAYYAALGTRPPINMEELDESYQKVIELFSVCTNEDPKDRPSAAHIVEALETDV

FLT3 = FLT3 (Homo sapiens, UniProt P36888); settings: 1 µM; inhibitor
BMX = BMX (Homo sapiens, UniProt P51813); settings: 1 µM; inhibitor
RET = RET (Homo sapiens, UniProt P07949); settings: 1 µM; inhibitor
Chain of RET (P07949 whole entry): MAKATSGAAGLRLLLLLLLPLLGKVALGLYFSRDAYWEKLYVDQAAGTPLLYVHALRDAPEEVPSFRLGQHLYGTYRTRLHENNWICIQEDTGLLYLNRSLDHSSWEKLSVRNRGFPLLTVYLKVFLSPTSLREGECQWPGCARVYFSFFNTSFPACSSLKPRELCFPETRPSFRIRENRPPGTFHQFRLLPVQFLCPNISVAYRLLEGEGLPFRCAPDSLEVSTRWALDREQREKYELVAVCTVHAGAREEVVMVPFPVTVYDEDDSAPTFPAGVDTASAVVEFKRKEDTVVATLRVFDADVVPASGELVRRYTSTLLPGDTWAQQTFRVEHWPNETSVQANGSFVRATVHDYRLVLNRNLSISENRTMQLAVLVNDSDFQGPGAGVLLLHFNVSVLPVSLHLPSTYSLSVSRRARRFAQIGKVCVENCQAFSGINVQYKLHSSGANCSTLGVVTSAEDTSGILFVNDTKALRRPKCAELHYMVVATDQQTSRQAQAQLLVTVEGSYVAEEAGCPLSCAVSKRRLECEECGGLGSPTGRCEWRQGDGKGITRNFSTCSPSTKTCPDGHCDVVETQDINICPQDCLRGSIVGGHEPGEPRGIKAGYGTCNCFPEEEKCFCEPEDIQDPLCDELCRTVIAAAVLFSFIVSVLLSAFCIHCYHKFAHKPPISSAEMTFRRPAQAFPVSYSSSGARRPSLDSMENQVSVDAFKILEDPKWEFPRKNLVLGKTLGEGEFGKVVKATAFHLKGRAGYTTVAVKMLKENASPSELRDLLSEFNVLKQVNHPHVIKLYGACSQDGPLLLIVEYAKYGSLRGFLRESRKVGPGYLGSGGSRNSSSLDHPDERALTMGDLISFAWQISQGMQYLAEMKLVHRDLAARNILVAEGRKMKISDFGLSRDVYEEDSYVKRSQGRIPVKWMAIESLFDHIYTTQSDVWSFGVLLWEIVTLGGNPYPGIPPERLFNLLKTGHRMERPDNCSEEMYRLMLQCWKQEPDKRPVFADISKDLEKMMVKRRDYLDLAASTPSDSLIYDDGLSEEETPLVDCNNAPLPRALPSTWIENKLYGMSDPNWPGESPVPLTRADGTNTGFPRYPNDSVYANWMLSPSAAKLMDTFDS

VEGFR2 = VEGFR2 (Homo sapiens, UniProt P35968); settings: 1 µM; inhibitor
MERTK = MERTK (Homo sapiens, UniProt Q12866); settings: 1 µM; inhibitor
GSG2 = GSG2 (Homo sapiens, UniProt Q8TF76); settings: 1 µM; inhibitor
MEKK2 = MEKK2 (Homo sapiens, UniProt Q9Y2U5); settings: 1 µM; inhibitor
DNAPK = DNAPK (Homo sapiens, UniProt P78527); settings: 1 µM; inhibitor
ROCK1 = ROCK1 (Homo sapiens, UniProt Q13464); settings: 1 µM; inhibitor
CDK18 = CDK18 (Homo sapiens, UniProt Q07002); settings: 1 µM; inhibitor

Chain of CDK11B (P21127 whole entry): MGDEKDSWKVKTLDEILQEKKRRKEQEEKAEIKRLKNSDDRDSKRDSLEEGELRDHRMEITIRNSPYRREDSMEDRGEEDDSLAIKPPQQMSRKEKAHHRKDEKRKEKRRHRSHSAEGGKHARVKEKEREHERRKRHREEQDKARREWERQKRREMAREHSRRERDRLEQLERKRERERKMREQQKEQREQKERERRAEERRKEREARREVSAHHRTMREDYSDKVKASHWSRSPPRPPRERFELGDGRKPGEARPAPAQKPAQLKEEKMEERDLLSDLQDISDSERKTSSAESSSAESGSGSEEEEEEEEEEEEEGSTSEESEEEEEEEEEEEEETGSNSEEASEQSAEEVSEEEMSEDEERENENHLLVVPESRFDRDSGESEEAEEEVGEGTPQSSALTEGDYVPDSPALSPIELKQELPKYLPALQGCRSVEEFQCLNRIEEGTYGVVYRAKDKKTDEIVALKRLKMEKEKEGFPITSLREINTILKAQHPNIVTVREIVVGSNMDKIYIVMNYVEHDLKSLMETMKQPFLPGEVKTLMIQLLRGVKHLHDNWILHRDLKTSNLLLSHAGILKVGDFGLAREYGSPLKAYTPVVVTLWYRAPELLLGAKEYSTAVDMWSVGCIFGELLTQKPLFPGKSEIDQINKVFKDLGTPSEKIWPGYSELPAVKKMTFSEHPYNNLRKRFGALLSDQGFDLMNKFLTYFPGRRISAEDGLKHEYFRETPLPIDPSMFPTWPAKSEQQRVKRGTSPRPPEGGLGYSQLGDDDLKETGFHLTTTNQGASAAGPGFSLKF
Chain of WEE1 (P30291 whole entry): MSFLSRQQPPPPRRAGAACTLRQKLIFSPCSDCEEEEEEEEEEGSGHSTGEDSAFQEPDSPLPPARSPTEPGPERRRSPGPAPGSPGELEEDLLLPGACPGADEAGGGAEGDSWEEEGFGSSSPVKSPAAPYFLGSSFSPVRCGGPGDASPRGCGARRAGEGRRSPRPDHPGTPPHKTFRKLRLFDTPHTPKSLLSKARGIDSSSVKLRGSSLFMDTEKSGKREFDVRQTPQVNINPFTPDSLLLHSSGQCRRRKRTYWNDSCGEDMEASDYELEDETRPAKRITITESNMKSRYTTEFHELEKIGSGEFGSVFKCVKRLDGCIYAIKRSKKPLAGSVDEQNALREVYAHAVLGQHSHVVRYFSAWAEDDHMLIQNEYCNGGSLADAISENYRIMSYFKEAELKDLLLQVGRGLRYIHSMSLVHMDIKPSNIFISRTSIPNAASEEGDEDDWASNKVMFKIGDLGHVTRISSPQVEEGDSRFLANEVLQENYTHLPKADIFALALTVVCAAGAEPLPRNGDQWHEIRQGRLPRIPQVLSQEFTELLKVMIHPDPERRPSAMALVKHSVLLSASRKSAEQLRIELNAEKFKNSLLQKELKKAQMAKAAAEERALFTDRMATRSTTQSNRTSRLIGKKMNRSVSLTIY

## O=C1NCCCCCNc2nc(c3ccccc3n2)Nc2cc1[nH]n2 [21c, (Z)-3^1H-2,5,11-triaza-1(4,2)-quinazolina-3(3,5)-pyrazolacycloundecaphan-4-one]
[1]
  EC50: 0.106 µM
SRPK1
  21c Remaining activity, percent of control [%]: 101.4%
CDK11B
  21c Remaining activity, percent of control [%]: 91.2%
WEE1
  21c Remaining activity, percent of control [%]: 88.0%
SIK2
  21c Remaining activity, percent of control [%]: 97.5%
PKMzeta
  21c Remaining activity, percent of control [%]: 96.2%
NLK
  21c Remaining activity, percent of control [%]: 111.9%
RPS6KA4
  21c Remaining activity, percent of control [%]: 92.5%
MATK
  21c Remaining activity, percent of control [%]: 78.6%
ALK
  21c Remaining activity, percent of control [%]: 100.1%
TIE2
  21c Remaining activity, percent of control [%]: 116.9%
EPHA3
  21c Remaining activity, percent of control [%]: 97.7%
ABL2
  21c Remaining activity, percent of control [%]: 84.2%
GRK6
  21c Remaining activity, percent of control [%]: 87.6%
PBK
  21c Remaining activity, percent of control [%]: 98.8%
FLT3
  21c Remaining activity, percent of control [%]: 103.4%
BMX
  21c Remaining activity, percent of control [%]: 84.8%
RET
  21c Remaining activity, percent of control [%]: 122.5%
VEGFR2
  21c Remaining activity, percent of control [%]: 90.3%
MERTK
  21c Remaining activity, percent of control [%]: 44.2%
GSG2
  21c Remaining activity, percent of control [%]: 108.1%
MEKK2
  21c Remaining activity, percent of control [%]: 103.5%
DNAPK
  21c Remaining activity, percent of control [%]: 100.7%
ROCK1
  21c Remaining activity, percent of control [%]: 98.4%
CDK18
  21c Remaining activity, percent of control [%]: 96.7%

Reference: publication doi:10.1101/2023.10.20.563248v1 (biorxiv, 2023)
